Assay results taken from PubChem BioAssay (NCI).
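Cultured in 96-well plates, cells were exposed to test compound for 48 hours across five concentrations. Definition used: TGI = concentration required for complete inhibition of growth.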

What was measured:
Assay in all cases: NCI tumour cell line growth inhibition, 48 h
[1] = system: 786-0 renal
[2] = system: A498 renal
[3] = system: A549 NSCLC
[4] = system: ACHN renal
[5] = system: CAKI-1 renal
[6] = system: CCRF-CEM leukemia
[7] = system: COLO 205 colon
[8] = system: DU-145 prostate
[9] = system: EKVX NSCLC
[10] = system: HCC-2998 colon
[11] = system: HCT-116 colon
[12] = system: HCT-15 colon
[13] = system: HOP-62 NSCLC
[14] = system: HT29 colon
[15] = system: K-562 leukemia
[16] = system: KM12 colon
[17] = system: LOX IMVI melanoma
[18] = system: MCF7 breast
[19] = system: MDA-MB-231 breast
[20] = system: MDA-MB-435
[21] = system: MDA-N
[22] = system: MOLT-4 leukemia
[23] = system: NCI-H23 lung
[24] = system: NCI-H460 lung
[25] = system: NCI-H522 lung
[26] = system: NCI/ADR-RES ovarian
[27] = system: OVCAR-3 ovarian
[28] = system: OVCAR-4 ovarian
[29] = system: OVCAR-5 ovarian
[30] = system: PC-3 prostate
[31] = system: RPMI-8226 leukemia
[32] = system: RXF 393 renal
[33] = system: SF-268 CNS
[34] = system: SF-295 CNS
[35] = system: SK-MEL-2 melanoma
[36] = system: SK-MEL-28 melanoma
[37] = system: SK-MEL-5 melanoma
[38] = system: SK-OV-3 ovarian
[39] = system: SN12C renal
[40] = system: SNB-19 CNS
[41] = system: SR leukemia
[42] = system: SW-620 colon
[43] = system: T-47D breast
[44] = system: U251 CNS
[45] = system: UACC-257 melanoma
[46] = system: UACC-62 melanoma
[47] = system: UO-31 renal

Measured: TGI

COc1ccc2cc(C(=O)NCCCNC(=O)c3ccc4c(OC)c(OC)ccc4c3)ccc2c1OC
> 100 µM: all assays above
